{"source": "patent US12162888B2", "about": "“Carboxamides as ubiquitin-specific protease inhibitors” (Valo Early Discovery, Inc., priority 2018, dated 2024)"}
{"target": "T1, USP28 (His-tagged USP28-FL-mammalian) (Homo sapiens, UniProt Q96RU2)", "T1 construct": "Expression of USP28 (1-1077)-TEV-6*His (pTT5 vector) was carried out in Expi293f cells; made in house; host or cells: Expi293F cells (pTT5 vector)", "T1 sequence (Q96RU2 1-1077)": "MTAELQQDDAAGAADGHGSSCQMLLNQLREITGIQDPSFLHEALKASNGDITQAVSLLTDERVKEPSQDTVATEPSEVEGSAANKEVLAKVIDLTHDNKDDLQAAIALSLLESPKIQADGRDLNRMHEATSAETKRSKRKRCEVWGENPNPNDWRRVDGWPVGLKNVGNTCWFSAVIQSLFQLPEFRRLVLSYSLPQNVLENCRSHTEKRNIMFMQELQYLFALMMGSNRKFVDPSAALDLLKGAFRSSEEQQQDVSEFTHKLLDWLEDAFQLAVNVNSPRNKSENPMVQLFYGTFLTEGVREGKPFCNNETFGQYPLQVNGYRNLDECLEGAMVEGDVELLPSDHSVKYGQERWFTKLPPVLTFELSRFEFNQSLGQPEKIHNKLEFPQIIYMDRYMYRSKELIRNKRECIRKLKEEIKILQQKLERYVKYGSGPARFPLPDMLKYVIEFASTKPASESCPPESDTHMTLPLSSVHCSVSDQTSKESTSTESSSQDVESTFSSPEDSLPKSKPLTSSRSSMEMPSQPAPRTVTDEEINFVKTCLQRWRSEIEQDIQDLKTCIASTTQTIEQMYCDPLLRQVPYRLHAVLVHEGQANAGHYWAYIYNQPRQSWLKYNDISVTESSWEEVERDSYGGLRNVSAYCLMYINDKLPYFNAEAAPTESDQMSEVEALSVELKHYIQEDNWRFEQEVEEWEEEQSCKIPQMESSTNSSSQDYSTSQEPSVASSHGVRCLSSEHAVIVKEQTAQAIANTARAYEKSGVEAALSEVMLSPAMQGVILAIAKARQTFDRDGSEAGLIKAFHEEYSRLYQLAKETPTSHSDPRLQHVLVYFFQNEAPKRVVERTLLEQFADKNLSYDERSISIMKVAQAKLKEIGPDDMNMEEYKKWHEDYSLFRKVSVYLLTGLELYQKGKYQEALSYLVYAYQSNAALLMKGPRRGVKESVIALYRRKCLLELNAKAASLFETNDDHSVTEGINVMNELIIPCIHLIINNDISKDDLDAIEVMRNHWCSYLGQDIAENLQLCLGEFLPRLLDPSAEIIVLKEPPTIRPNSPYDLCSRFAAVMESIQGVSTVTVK", "test": "Ubiquitin-Rhodamine 110 Assay for USP28 Activity, Example A-1(a)", "type": "biochemical", "conditions": "Ubiquitin-Rhodamine 110 biochemical assay, read-out: USP28 A-1(a) IC50 range", "description": "(§1) Example A-1(a): Biochemical Assay: Ubiquitin-Rhodamine 110 Assay for USP28 Activity\n(§2) The assay was performed in a final volume of 9 μL in assay buffer containing 20 mM Tris-HCl (pH 8.0, (1M Tris-HCl, pH 8.0 solution; Corning 46-031-CM)), 3 mM BME (2-Mercaptoethanol; Sigma 63689-25ML-F), 0.03% BGG (0.22 μM filtered, Sigma, G7516-25G), and 0.01% Triton X-100 (Sigma, T9284-10L). Nanoliter quantities of 10-point, 3-fold serial dilution in DMSO was pre-dispensed into 1536 assay plates (Corning, #3724BC) for a final test concentration of 25 μM to 1.3 nM, top to lowest dose, respectively. Enzyme USP28, construct His-tagged USP28-FL-mammalian, (protein expression and purification procedure described below). Concentration and incubation times were optimized for the maximal signal-to-background while maintaining initial velocity conditions at a fixed substrate concentration. The final concentration of the enzyme in the assay was […]. Final substrate (Ub-Rh110; Ubiquitin-Rhodamine 110, UbiQ-126) concentration was 25 nM with [Ub-Rh110]<<Km. 3 μL of 2× enzyme was added to assay plates (pre-stamped with compound) preincubated with […] for 30 minutes and then 3 μL of 2× Ub-Rh110 was added to assay plates. Plates were incubated for 45 minutes at room temperature before addition of 3 μL of stop solution (final concentration of 10 mM citric acid (Sigma, 251275-500G)). Fluorescence was read on the Envision (Excitation at 485 nm and Emission at 535 nm; Perkin Elmer) or on the PheraSTAR (Excitation at 485 nm and Emission at 535 nm; BMG Labtech).\n(§3) Procedure for the Protein expression and purification for construct His-tagged USP28-FL-mammalian\n(§4) Expression of USP28 (1-1077)-TEV-6*His (pTT5 vector) was carried out in Expi293f cells (sequence derived from uniprot ID: Q96RU2-1). Cells were re-suspended in lysis buffer B 50 mM Bicine, pH 8.0, 20 mM NaCl, 5% glycerol, 0.1% CHAPS, 5 mM β-ME, 1 mM PMSF, 1 ug/ml Leupeptin, 1 ug/ml Pepstatin) and lysed by sonication. Insoluble material was removed by centrifugation and the supernatant was loaded onto a Ni-NTA column (GE Healthcare) equilibrated with Ni Buffer A (50 mM Bicine, pH 8.0, 20 mM NaCl, 5% glycerol, 0.1% CHAPS, 5 mM R-ME.) and washed with Ni Buffer A+20 mM imidazole until A280 reached baseline. The protein was eluted with Ni Buffer B (50 mM Bicine, pH 8.0, 20 mM NaCl, 5% glycerol, 0.1% CHAPS, 5 mM β-ME, 300 mM imidazole.). The protein was further purified using a Superdex™ 200 10/300 GL column (GE Healthcare) equilibrated with 50 mM Bicine, pH 8.0, 20 mM NaCl, 5% glycerol, 0.1% CHAPS, 5 mM β-ME. The protein was concentrated to 2.5 mg ml-1, flash-frozen in liquid N2 and stored at −80° C.\n(§5) For assay formats Example A-1(a), A-1(b), and A-2, data were reported as percent inhibition compared with control wells based on the following equation: % inh=1−((FLU−AveLow)/(AveHigh−AveLow)) where FLU=measured Fluorescence, AveLow=average Fluorescence of no enzyme control (n=16), and AveHighh=average Fluorescence of DMSO control (n=16). IC50 values were determined by curve fitting of the standard 4 parameter logistic fitting algorithm included in the Activity Base software package: IDBS XE Designer Model 205. Data is fitted using the Levenburg Marquardt algorithm.", "units": {"IC50": "nM"}}
{"smiles": "Cc1ccc2c(N)c(C(=O)N[C@H]3CCc4nc(N5C[C@H](N)[C@@]6(C5)OCC[C@@H]6C)ccc4C3)sc2n1", "note": "[Example 509, 3-amino-N-[(6S)-2-[(4S,5R,9S)-9-amino-4-methyl-1-oxa-7-azaspiro[4.4]nonan-7-yl]-5,6,7,8-tetrahydroquinolin-6-yl]-6-methylthieno[2,3-b]pyridine-2-carboxamide]", "IC50": "50 to 200"}
{"smiles": "Cc1ccc2c(N)c(C(=O)N[C@H]3CCc4nc(N5C[C@H](N)[C@@]6(C5)OCC[C@H]6C)ccc4C3)sc2n1", "note": "[Example 510, 3-amino-N-[(6S)-2-[(4R,5R,9S)-9-amino-4-methyl-1-oxa-7-azaspiro[4.4]nonan-7-yl]-5,6,7,8-tetrahydroquinolin-6-yl]-6-methylthieno[2,3-b]pyridine-2-carboxamide]", "IC50": "50 to 200"}
{"smiles": "Cc1ccc2c(N)c(C(=O)N[C@H]3CCc4nc(N5C[C@@H](N)[C@]6(C5)OCC[C@@H]6C)ccc4C3)sc2n1", "note": "[Example 511, 3-amino-N-[(6S)-2-[(4S,5S,9R)-9-amino-4-methyl-1-oxa-7-azaspiro[4.4]nonan-7-yl]-5,6,7,8-tetrahydroquinolin-6-yl]-6-methylthieno[2,3-b]pyridine-2-carboxamide]", "IC50": "200 to 2000"}
{"smiles": "Cc1ccc2c(N)c(C(=O)N[C@H]3CCc4nc(N5C[C@@H](N)[C@]6(C5)OCC[C@H]6C)ccc4C3)sc2n1", "note": "[Example 512, 3-amino-N-[(6S)-2-[(4R,5S,9R)-9-amino-4-methyl-1-oxa-7-azaspiro[4.4]nonan-7-yl]-5,6,7,8-tetrahydroquinolin-6-yl]-6-methylthieno[2,3-b]pyridine-2-carboxamide]", "IC50": "50 to 200"}
{"smiles": "COC[C@@H]1CN(c2ccc3c(n2)CC[C@H](NC(=O)c2sc4nc(C)c(F)cc4c2N)C3)C[C@@H]1N", "note": "[Example 513, 3-amino-N-[(6S)-2-[(3R,4R)-3-amino-4-(methoxymethyl)pyrrolidin-1-yl]-5,6,7,8-tetrahydroquinolin-6-yl]-5-fluoro-6-methylthieno[2,3-b]pyridine-2-carboxamide]", "IC50": "50 to 200"}
{"smiles": "CN[C@H]1CN(c2ccc3c(n2)CC[C@H](NC(=O)c2sc4nc(C)c(F)cc4c2N)C3)C[C@@H]1COC", "note": "[Example 515, 3-amino-5-fluoro-N-[(6S)-2-[(3S,4R)-3-(methoxymethyl)-4-(methylamino)pyrrolidin-1-yl]-5,6,7,8-tetrahydroquinolin-6-yl]-6-methylthieno[2,3-b]pyridine-2-carboxamide]", "IC50": "50 to 200"}
{"smiles": "Cc1ccc2c(N)c(C(=O)N[C@H]3CCc4nc(N5C[C@@H](COC(F)F)[C@@H](N)C5)ccc4C3)sc2n1", "note": "[Example 516, 3-amino-N-[(6S)-2-[(3R,4R)-3-amino-4-[(difluoromethoxy)methyl]pyrrolidin-1-yl]-5,6,7,8-tetrahydroquinolin-6-yl]-6-methylthieno[2,3-b]pyridine-2-carboxamide]", "IC50": "50 to 200"}
{"smiles": "Cc1ccc2c(N)c(C(=O)N[C@H]3CCc4nc(N5C[C@H](COC(F)F)[C@H](N)C5)ccc4C3)sc2n1", "note": "[Example 517, 3-amino-N-[(6S)-2-[(3S,4S)-3-amino-4-[(difluoromethoxy)methyl]pyrrolidin-1-yl]-5,6,7,8-tetrahydroquinolin-6-yl]-6-methylthieno[2,3-b]pyridine-2-carboxamide]", "IC50": "50 to 200"}
{"smiles": "Cc1ccc2c(N)c(C(=O)N[C@H]3CCc4nc(N5C[C@@H](N)CC(F)(F)C5)ccc4C3)sc2n1", "note": "[Example 518, 3-amino-N-[(6S)-2-[(5S)-5-amino-3,3-difluoropiperidin-1-yl]-5,6,7,8-tetrahydroquinolin-6-yl]-6-methylthieno[2,3-b]pyridine-2-carboxamide]", "IC50": "1 to 50"}
{"smiles": "Cc1ccc2c(N)c(C(=O)N[C@H]3CCc4nc(N5C[C@H](N)CC(F)(F)C5)ccc4C3)sc2n1", "note": "[Example 519, 3-amino-N-[(6S)-2-[(5R)-5-amino-3,3-difluoropiperidin-1-yl]-5,6,7,8-tetrahydroquinolin-6-yl]-6-methylthieno[2,3-b]pyridine-2-carboxamide]", "IC50": "1 to 50"}
{"smiles": "CCO[C@H]1CN(c2ccc3c(n2)CC[C@H](NC(=O)c2sc4nc(C)cnc4c2N)C3)C[C@@H]1N", "note": "[Example 520, 7-amino-N-[(6S)-2-[(3S,4S)-3-amino-4-ethoxypyrrolidin-1-yl]-5,6,7,8-tetrahydroquinolin-6-yl]-3-methylthieno[2,3-b]pyrazine-6-carboxamide]", "IC50": "200 to 2000"}
{"target": "T1, USP28 (His-tagged USP28-FL-mammalian)", "test": "Ubiquitin-Rhodamine 110 Assay for USP28 Activity, Example A-1(a)", "type": "biochemical", "conditions": "biochemical IC50 range, Ubiquitin-Rhodamine 110 assay, read-out: USP28 A-1(a)", "description": "as §1, §2, §3, §4, §5", "units": {"IC50": "nM"}}
{"smiles": "Cc1ccc2c(N)c(C(=O)N[C@H]3COc4nc(N5C[C@@H](CF)[C@@H](N)C5)ccc4C3)sc2n1", "note": "[Example 539, 3-amino-N-[(3R)-7-[(3R,4R)-3-amino-4-(fluoromethyl)pyrrolidin-1-yl]-2H,3H,4H-pyrano[2,3-b]pyridin-3-yl]-6-methylthieno[2,3-b]pyridine-2-carboxamide]", "IC50": "50 to 200"}
{"smiles": "Cc1ccc2c(N)c(C(=O)N[C@H]3COc4nc(N5C[C@H](CF)[C@H](N)C5)ccc4C3)sc2n1", "note": "[Example 540, 3-amino-N-[(3R)-7-[(3S,4S)-3-amino-4-(fluoromethyl)pyrrolidin-1-yl]-2H,3H,4H-pyrano[2,3-b]pyridin-3-yl]-6-methylthieno[2,3-b]pyridine-2-carboxamide]", "IC50": "50 to 200"}
{"smiles": "Cc1ccc2c(N)c(C(=O)N[C@H]3COc4nc(N5C[C@H](CF)[C@@H](N)C5)ccc4C3)sc2n1", "note": "[Example 541, 3-amino-N-[(3R)-7-[(3R,4S)-3-amino-4-(fluoromethyl)pyrrolidin-1-yl]-2H,3H,4H-pyrano[2,3-b]pyridin-3-yl]-6-methylthieno[2,3-b]pyridine-2-carboxamide]", "IC50": "200 to 2000"}
{"smiles": "Cc1ccc2c(N)c(C(=O)N[C@H]3COc4nc(N5C[C@@H](CF)[C@H](N)C5)ccc4C3)sc2n1", "note": "[Example 542, 3-amino-N-[(3R)-7-[(3S,4R)-3-amino-4-(fluoromethyl)pyrrolidin-1-yl]-2H,3H,4H-pyrano[2,3-b]pyridin-3-yl]-6-methylthieno[2,3-b]pyridine-2-carboxamide]", "IC50": "50 to 200"}
